Laboratory results published in the supplement of paper PMC10307832.

Tests used:
Assay in all cases: relative viability (nuclei count vs DMSO), 5 days (fraction); higher = more cells survive
[1] = tested on: HCC-44
Outline: (§1)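 Lung cancer cell lines were pin-tool dosed in 1536-well plates on the day after seeding, with either a lone drug or a fixed anchor-drug dose plus five library-drug doses (not always all listed) in √10 steps. Nuclei were counted on 4× images after 5 days. Relative viability is the ratio of treated-well to vehicle-well nuclei counts, with each value a median of duplicate plates.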

[2] = tested on: UMC-11
Outline: as §1

[3] = tested on: COR-L23
Outline: as §1

[4] = tested on: NCI-H2126
Outline: as §1

[5] = tested on: NCI-H1651
Outline: as §1

[6] = tested on: HOP-62
Outline: as §1

[7] = tested on: PC-14
Outline: as §1

[8] = tested on: HCC-15
Outline: as §1

[9] = tested on: NCI-H358
Outline: as §1

[10] = tested on: LC-2-ad
Outline: as §1

[11] = tested on: NCI-H650
Outline: as §1

[12] = tested on: LU99A
Outline: as §1

[13] = tested on: NCI-H2347
Outline: as §1

[14] = tested on: NCI-H1355
Outline: as §1

[15] = tested on: EPLC-272H
Outline: as §1

[16] = tested on: HARA
Outline: as §1

[17] = tested on: SW 1573
Outline: as §1

[18] = tested on: ABC-1
Outline: as §1

[19] = tested on: NCI-H1993
Outline: as §1

[20] = tested on: NCI-H2023
Outline: as §1

[21] = tested on: NCI-H2085
Outline: as §1

[22] = tested on: NCI-H838
Outline: as §1

[23] = tested on: NCI-H1915
Outline: as §1

**Q.** What does the source list for `CCN(CC)CCCCNc1ncc2cc(-c3cc(OC)cc(OC)c3)c(NC(=O)NC(C)(C)C)nc2n1` + N=C(N)NC(=N)NCCc1ccccc1 [Phenformin] (partner 250 µM)?
**A.** relative viability ([1]; first compound 0.01 µM): 0.189; relative viability ([1]; first compound 0.03162 µM): 0.195; relative viability ([1]; first compound 0.1 µM): 0.237; relative viability ([1]; first compound 0.3162 µM): 0.234; relative viability ([1]; first compound 1 µM): 0.22; relative viability ([2]; first compound 0.01 µM): 0.346; relative viability ([2]; first compound 0.03162 µM): 0.353; relative viability ([2]; first compound 0.1 µM): 0.371; relative viability ([2]; first compound 0.3162 µM): 0.343; relative viability ([2]; first compound 1 µM): 0.362; relative viability ([3]; first compound 0.01 µM): 0.433; relative viability ([3]; first compound 0.03162 µM): 0.444; relative viability ([3]; first compound 0.1 µM): 0.511; relative viability ([3]; first compound 0.3162 µM): 0.517; relative viability ([3]; first compound 1 µM): 0.362; relative viability ([4]; first compound 0.01 µM): 0.496; relative viability ([4]; first compound 0.03162 µM): 0.52; relative viability ([4]; first compound 0.1 µM): 0.551; relative viability ([4]; first compound 0.3162 µM): 0.623; relative viability ([4]; first compound 1 µM): 0.515; relative viability ([5]; first compound 0.01 µM): 0.305; relative viability ([5]; first compound 0.03162 µM): 0.383; relative viability ([5]; first compound 0.1 µM): 0.347; relative viability ([5]; first compound 0.3162 µM): 0.316; relative viability ([5]; first compound 1 µM): 0.257; relative viability ([6]; first compound 0.01 µM): 0.81; relative viability ([6]; first compound 0.03162 µM): 0.847; relative viability ([6]; first compound 0.1 µM): 0.604; relative viability ([6]; first compound 0.3162 µM): 0.752; relative viability ([6]; first compound 1 µM): 0.654; relative viability ([7]; first compound 0.01 µM): 0.439; relative viability ([7]; first compound 0.03162 µM): 0.426; relative viability ([7]; first compound 0.1 µM): 0.661; relative viability ([7]; first compound 0.3162 µM): 0.87; relative viability ([7]; first compound 1 µM): 0.387; relative viability ([8]; first compound 0.01 µM): 0.466; relative viability ([8]; first compound 0.03162 µM): 0.535; relative viability ([8]; first compound 0.1 µM): 0.526; relative viability ([8]; first compound 0.3162 µM): 0.484; relative viability ([8]; first compound 1 µM): 0.424; relative viability ([9]; first compound 0.01 µM): 0.358; relative viability ([9]; first compound 0.03162 µM): 0.302; relative viability ([9]; first compound 0.1 µM): 0.358; relative viability ([9]; first compound 0.3162 µM): 0.472; relative viability ([9]; first compound 1 µM): 0.331; relative viability ([10]; first compound 0.01 µM): 0.625; relative viability ([10]; first compound 0.03162 µM): 0.55; relative viability ([10]; first compound 0.1 µM): 0.586; relative viability ([10]; first compound 0.3162 µM): 0.629; relative viability ([10]; first compound 1 µM): 0.483; relative viability ([11]; first compound 0.01 µM): 0.417; relative viability ([11]; first compound 0.03162 µM): 0.442; relative viability ([11]; first compound 0.1 µM): 0.449; relative viability ([11]; first compound 0.3162 µM): 0.47; relative viability ([11]; first compound 1 µM): 0.451; relative viability ([12]; first compound 0.01 µM): 0.764; relative viability ([12]; first compound 0.03162 µM): 0.841; relative viability ([12]; first compound 0.1 µM): 1.04; relative viability ([12]; first compound 0.3162 µM): 0.772; relative viability ([12]; first compound 1 µM): 0.756; relative viability ([13]; first compound 0.01 µM): 0.381; relative viability ([13]; first compound 0.03162 µM): 0.24; relative viability ([13]; first compound 0.1 µM): 0.278; relative viability ([13]; first compound 0.3162 µM): 0.505; relative viability ([13]; first compound 1 µM): 0.379; relative viability ([14]; first compound 0.01 µM): 0.446; relative viability ([14]; first compound 0.03162 µM): 0.443; relative viability ([14]; first compound 0.1 µM): 0.468; relative viability ([14]; first compound 0.3162 µM): 0.501; relative viability ([14]; first compound 1 µM): 0.413; relative viability ([15]; first compound 0.01 µM): 0.324; relative viability ([15]; first compound 0.03162 µM): 0.3; relative viability ([15]; first compound 0.1 µM): 0.236; relative viability ([15]; first compound 0.3162 µM): 0.296; relative viability ([15]; first compound 1 µM): 0.288; relative viability ([16]; first compound 0.01 µM): 0.49; relative viability ([16]; first compound 0.03162 µM): 0.504; relative viability ([16]; first compound 0.1 µM): 0.489; relative viability ([16]; first compound 0.3162 µM): 0.395; relative viability ([16]; first compound 1 µM): 0.364; relative viability ([17]; first compound 0.01 µM): 0.351; relative viability ([17]; first compound 0.03162 µM): 0.372; relative viability ([17]; first compound 0.1 µM): 0.394; relative viability ([17]; first compound 0.3162 µM): 0.36; relative viability ([17]; first compound 1 µM): 0.36; relative viability ([18]; first compound 0.01 µM): 0.24; relative viability ([18]; first compound 0.03162 µM): 0.286; relative viability ([18]; first compound 0.1 µM): 0.256; relative viability ([18]; first compound 0.3162 µM): 0.208; relative viability ([18]; first compound 1 µM): 0.254; relative viability ([19]; first compound 0.01 µM): 0.501; relative viability ([19]; first compound 0.03162 µM): 0.512; relative viability ([19]; first compound 0.1 µM): 0.554; relative viability ([19]; first compound 0.3162 µM): 0.492; relative viability ([19]; first compound 1 µM): 0.514; relative viability ([20]; first compound 0.01 µM): 0.415; relative viability ([20]; first compound 0.03162 µM): 0.43; relative viability ([20]; first compound 0.1 µM): 0.5; relative viability ([20]; first compound 0.3162 µM): 0.432; relative viability ([20]; first compound 1 µM): 0.4; relative viability ([21]; first compound 0.01 µM): 0.735; relative viability ([21]; first compound 0.03162 µM): 0.661; relative viability ([21]; first compound 0.1 µM): 0.76; relative viability ([21]; first compound 0.3162 µM): 0.808; relative viability ([21]; first compound 1 µM): 0.779; relative viability ([22]; first compound 0.01 µM): 0.498; relative viability ([22]; first compound 0.03162 µM): 0.562; relative viability ([22]; first compound 0.1 µM): 0.597; relative viability ([22]; first compound 0.3162 µM): 0.538; relative viability ([22]; first compound 1 µM): 0.291; relative viability ([23]; first compound 0.01 µM): 0.376; relative viability ([23]; first compound 0.03162 µM): 0.377; relative viability ([23]; first compound 0.1 µM): 0.365; relative viability ([23]; first compound 0.3162 µM): 0.373; relative viability ([23]; first compound 1 µM): 0.337
